In US8383125B2, “Antimicrobial protein” (Agriculture Victoria Services Pty, Limited, priority 2006, dated 2013):
Converted amounts (≈) assume the structure as drawn. Where two headings read alike, the source gives them in different places. Where a SMILES comes first, the peptide text is derived from it. Where no end group is shown, it is not given here. [ ]: non-standard residue; d: D form.

Legend:
[1] = tested on: E. coli DH5α; settings: for antimicrobial activity, cleared area in radial diffusion assay (FIG. 4): 5 μl of 250 μg/ml solutions
Description: Briefly, approximately 4×10^6 of mid-logarithmic-phase organisms were grown on plates in 11 ml of warm 0.8% agarose containing 0.03% (w/v) Tryticase soy broth (TSB) powder, with or without 100 mM NaCl, buffered with 10 mM sodium phosphate, pH 7.4. The test peptide was serially diluted in acidified water (0.01% acetic acid), and 5 μl of diluted peptide sample was loaded in a 2.5 diameter well in the agarose. A 10 ml overlay gel composed of 6% TSB, 0.8% agarose and 10 mM sodium phosphate buffer (pH 7.4) was poured into each well. Plates were then incubated overnight to allow the surviving organisms to form microcolonies. The clear zone were measured to the nearest 0.1 mm using a magnified transilluminator and expressed in units (1 mm=10 U) after subtracting the well diameter. The minimum inhibitory concentration (MIC) is defined by the χ intercept of a regression line through zone diameters obtained from a series of serially diluted peptide samples.

[2] = tested on: P. aeruginosa (ATCC 28753); format: cell-based, Pseudomonas aeruginosa
[3] = tested on: Salmonella choleraesuis (ATCC 14028); format: cell-based
[4] = tested on: Bacillus subtilis; format: cell-based
[5] = tested on: Staphylococcus aureus (ATCC 25923); format: cell-based
[6] = tested on: Streptococcus pyogenes (ATCC 19615); format: cell-based
[7] = tested on: Streptococcus equi equi (ATCC 9527); format: cell-based; settings: ATCC 9527
[8] = tested on: Streptococcus agalactiae (ATCC 12927); format: cell-based
[9] = tested on: Candida albicans (ATCC 753); format: cell-based
[10] = tested on: P. aeruginosa strain FADDI 002; format: cell-based, Pseudomonas aeruginosa; settings: strain FADDI 002, 17 h
Description: (§1) The MIC values of SEQ ID NO: 2 and SEQ ID NO: 19 were also determined against a range of multidrug-resistant isolates, including clinical and laboratory strains. Peptides, maintained at −20° C. in solid form for storage purposes, were subsequently dissolved in 0.01% (v/v) acetic acid (Sigma-Aldrich) to a stock concentration of […]. The stock solutions were made fresh for each experiment. Eighteen (18) bacterial isolates obtained from the Facility for Anti-Infective Drug Development and Innovation, Victoria, Australia (FADDI) as listed in Table 2 were maintained as stock cultures in Tryptic Soya Broth plus 20% (v/v) glycerol at a temperature of −80° C., and subcultured onto Nutrient Agar for each experiment. MIC values were determined in cation-adjusted Mueller-Hinton broth (CAMHB) and Mueller-Hinton broth (MHB) using standard broth micro-dilution methods.

[11] = tested on: A. baumannii strain FADDI 005 (ATCC 19606 derivative); format: cell-based, Acinetobacter baumannii; settings: 17 hr at 35° C.
Description: as §1
Pseudomonas aeruginosa (ATCC 27853) and S. aureus (ATCC 43300) were included as quality controls in experiments. P. aeruginosa strains FADDI 001 and FADDI 002 are mucoid; and P. aeruginosa strains FADDI 003 and FADDI 004 are non-mucoid. P. aeruginosa strain FADDI 003 also has a small colony morphology. The A. baumannii strain FADDI 005 is a colistin-resistant isolate obtained from Mueller-Hinton agar containing 10 mg/L colistin.

[12] = tested on: A. baumannii strain FADDI 006; format: cell-based, Acinetobacter baumannii; settings: strain FADDI 006, 17 h
Description: as §1

[13] = tested on: A. baumannii strain FADDI 007; format: cell-based, Acinetobacter baumannii; settings: strain FADDI 007, 17 h
Description: as §1

[14] = tested on: K. pneumoniae strain FADDI 009; format: cell-based, Klebsiella pneumoniae; settings: strain FADDI 009, 17 h
Description: as §1

[15] = tested on: K. pneumoniae strain FADDI 010; format: cell-based, Klebsiella pneumoniae; settings: strain FADDI 010, 17 h
Description: as §1

[16] = tested on: Enterococcus faecium (ATCC 700221); format: cell-based; settings: ATCC 700221, 17 h
Description: as §1

[17] = tested on: Escherichia coli DH5 α; format: cell-based
Description: as §1

[18] = tested on: Staphylococcus aureus (ATCC 700698); format: cell-based; settings: ATCC 700698, 17 h
Description: as §1

[19] = tested on: S. aureus (ATCC 43300); format: cell-based, Staphylococcus aureus; settings: ATCC 43300, 17 h
Description: as §1

[20] = tested on: S. aureus 700699; format: cell-based, Staphylococcus aureus; settings: 700699, 17 h
Description: as §1

[21] = tested on: S. aureus strain FADDI 011; format: cell-based, Staphylococcus aureus; settings: strain FADDI 011, 17 h
Description: as §1

[22] = tested on: tammar wallaby erythrocytes; format: cell-based
Description: The toxicity of the antimicrobial peptides was determined using a haemolytic assay. In particular, the hemolytic activity of the peptides was determined using tammar wallaby erythrocytes. Fresh erythrocytes were harvested from heparinized blood taken from a tammar wallaby. Erythrocytes were harvested by centrifugation for 3 min at 3000 g. Erythrocytes were then washed three times with PBS (pH 7.4) until the supernatant was essentially colourless. 20 μl two fold serial dilutions of the peptide were mixed with the same volume of erythrocytes in solution 2%) in PBS of each well of a 96-plate. 80 μl PBS was added to each well after the plate was incubated at 37° C. for one hour. Plates were then centrifuged at 3000 g for 5 min. 90 μl of the resulting supernatant was transferred to a flat-bottom microtiter plate and haemoglobin release was monitored by measuring the absorbance at 414 nm with an ELISA plate reader. […] Each sample was performed in triplicate. Percentage hemolysis was calculated by the following formula: [(OD414 peptide−OD414 buffer)/OD414 complete hemolysis−OD414 buffer)]×100%.

[23] = tested on: Acinetobacter baumannii (ATCC 19606); format: cell-based
Description: as §1

[24] = tested on: Klebsiella pneumoniae (ATCC 13883); format: cell-based
Description: as §1

[25] = tested on: Pseudomonas aeruginosa (ATCC 27853); format: cell-based
Description: as §1

[26] = MHB (less than 5 mg/L Mg2+ and 24 mg/L Ca2+), 17 hr at 35° C.

PLPIPIVVNFNKLRKKISNRFKKLRKRLKKGFGRK [SEQ ID NO: 13]
antimicrobial activity, cleared area in radial diffusion assay (FIG. 4) ([1]; E. coli): exhibits antimicrobial activity

RKKGSKRHKPGSYSVIALGKPGVKKSPYMEAL-NH2 [SEQ ID NO: 31]
MIC [2]: 57.8 µg/mL
MIC [3]: >250 µg/mL
MIC [4]: 14.03 ± 0.25 µg/mL
MIC ([5]; ATCC 25923): 8.5 ± 0.23 µg/mL
MIC ([6]; ATCC 19615): 3.43 ± 0.34 µg/mL
antimicrobial activity in words ([6]; Table 1): moderate protection
MIC [7]: 8.66 ± 0.45 µg/mL
MIC ([8]; ATCC 12927): 5.44 ± 0.11 µg/mL
MIC ([9]; ATCC 753): >250 µg/mL
MIC ([1]; DH5 α): 1.16 ± 0.67 µg/mL
antimicrobial activity in words ([1]; Table 1): strong protection

KRGFGKKLRKRLKKFRNSIKKRLKNFNVVIPIPLP-NH2 [SEQ ID NO: 2]
antimicrobial activity in words ([5]; Table 1): weaker antimicrobial activity
antimicrobial activity in words ([8]; Table 1): moderate antimicrobial activity
antimicrobial activity in words ([9]; Table 1): Weaker antimicrobial activity
MIC [10]: 4 µg/mL
MIC ([11]; CAMHB (10.0 mg/L Mg2+ and 24 mg/L Ca2+)): 8 µg/mL
MIC ([11]; MHB (less than 5 mg/L Mg2+ and 24 mg/L Ca2+)): 4 µg/mL
MIC [12]: >64 µg/mL
MIC [13]: 8 µg/mL
MIC [14]: 4 µg/mL
MIC [15]: 32 µg/mL
MIC [16]: 16 µg/mL
MIC ([17]; DH5 α): 2 µg/mL
MIC [18]: >64 µg/mL
MIC [19]: >64 µg/mL
MIC [20]: >64 µg/mL
MIC [21]: >64 µg/mL
haemolysis at the MIC determined in Example 1 [22]: less than 5%
haemolysis at the majority of concentrations tested (FIGS. 2a and 2b) [22]: did not cause substantial levels of haemolysis
radial clear zone compared to LL-37 (FIG. 3) ([1]; 5 μl of 250 μg/ml solutions of each peptide, E. coli): larger radial clear zone

CC[C@H](C)[C@H](NC(=O)[C@H](CCCCN)NC(=O)[C@H](CCC(=O)O)NC(=O)[C@H](CCCCN)NC(=O)[C@H](CO)NC(=O)[C@H](CCCCN)NC(=O)[C@H](CCCNC(=N)N)NC(=O)[C@H](Cc1ccccc1)NC(=O)[C@H](Cc1ccccc1)NC(=O)[C@H](CC(=O)O)NC(=O)CNC(=O)[C@H](CC(C)C)NC(=O)[C@@H](N)CC(C)C)C(=O)NCC(=O)N[C@@H](CCCCN)C(=O)N[C@@H](CCC(=O)O)C(=O)N[C@@H](Cc1ccccc1)C(=O)N[C@@H](CCCCN)C(=O)N[C@@H](CCCNC(=N)N)C(=O)N[C@H](C(=O)N[C@H](C(=O)N[C@@H](CCC(N)=O)C(=O)N[C@@H](CCCNC(=N)N)C(=O)N[C@H](C(=O)N[C@@H](CCCCN)C(=O)N[C@@H](CC(=O)O)C(=O)N[C@@H](Cc1ccccc1)C(=O)N[C@@H](CC(C)C)C(=O)N[C@@H](CCCNC(=N)N)C(=O)N[C@@H](CC(N)=O)C(=O)N[C@@H](CC(C)C)C(=O)N[C@H](C(=O)N1CCC[C@H]1C(=O)N[C@@H](CCCNC(=N)N)C(=O)N[C@H](C(=O)N[C@@H](CCC(=O)O)C(=O)N[C@@H](CO)C(=O)O)[C@@H](C)O)C(C)C)[C@@H](C)CC)C(C)C)[C@@H](C)CC [LL-37, reference compound]
MIC [23, 26]: 32 µg/mL (≈ 7.12 µM)
MIC ([17]; microbroth dilution in MHB): 32 µg/mL (≈ 7.12 µM)
MIC [24, 26]: 32 µg/mL (≈ 7.12 µM)
MIC [25, 26]: >32 µg/mL

D-Lys Arg Gly Phe Gly Lys Lys Leu Arg Lys Arg Leu Lys Lys Phe Arg Asn Ser Ile Lys Lys Arg Leu Lys Asn Phe Asn Val Val Ile Pro Ile Pro Leu D-Pro ([dK]RGFGKKLRKRLKKFRNSIKKRLKNFNVVIPIPL[dP]) [SEQ ID NO: 11]
antimicrobial activity, cleared area in radial diffusion assay (FIG. 4) ([1]; E. coli): exhibits antimicrobial activity

CC[C@@H](C)[C@@H](NC(=O)[C@@H](CO)NC(=O)[C@@H](CC(N)=O)NC(=O)[C@@H](CCCNC(=N)N)NC(=O)[C@@H](Cc1ccccc1)NC(=O)[C@@H](CCCCN)NC(=O)[C@@H](CCCCN)NC(=O)[C@@H](CC(C)C)NC(=O)[C@@H](CCCNC(=N)N)NC(=O)[C@@H](CCCCN)NC(=O)[C@@H](CCCNC(=N)N)NC(=O)[C@@H](CC(C)C)NC(=O)[C@@H](CCCCN)NC(=O)[C@@H](CCCCN)NC(=O)CNC(=O)[C@@H](Cc1ccccc1)NC(=O)CNC(=O)[C@@H](CCCNC(=N)N)NC(=O)[C@H](N)CCCCN)C(=O)N[C@H](CCCCN)C(=O)N[C@H](CCCCN)C(=O)N[C@H](CCCNC(=N)N)C(=O)N[C@H](CC(C)C)C(=O)N[C@H](CCCCN)C(=O)N[C@H](CC(N)=O)C(=O)N[C@H](Cc1ccccc1)C(=O)N[C@H](CC(N)=O)C(=O)N[C@@H](C(=O)N[C@@H](C(=O)N[C@@H](C(=O)N1CCC[C@@H]1C(=O)N[C@@H](C(=O)N1CCC[C@@H]1C(=O)N[C@H](CC(C)C)C(=O)N1CCC[C@@H]1C(N)=O)[C@H](C)CC)[C@H](C)CC)C(C)C)C(C)C [SEQ ID NO: 9, D-Lys D-Arg D-Gly D-Phe D-Gly D-Lys D-Lys D-Leu D-Arg D-Lys D-Arg D-Leu D-Lys D-Lys D-Phe D-Arg D-Asn D-Ser D-Ile D-Lys D-Lys D-Arg D-Leu D-Lys D-Asn D-Phe D-Asn D-Val D-Val D-Ile D-Pro D-Ile D-Pro D-Leu D-Pro] (H-[dK][dR]G[dF]G[dK][dK][dL][dR][dK][dR][dL][dK][dK][dF][dR][dN][dS][dI][dK][dK][dR][dL][dK][dN][dF][dN][dV][dV][dI][dP][dI][dP][dL][dP]-NH2; N-terminus and C-terminus assumed)
MIC ([23]; ATCC 19606, 17 h): 8 µg/mL (≈ 1.9 µM)
MIC ([17]; DH5 α): 4 µg/mL (≈ 0.948 µM)
MIC ([24]; ATCC 13883, 17 h): 4 µg/mL (≈ 0.948 µM)
MIC ([25]; ATCC 27853, 17 h): 4 µg/mL (≈ 0.948 µM)
MIC [19]: >32 µg/mL

D-Pro Leu Pro Ile Pro Ile Val Val Asn Phe Asn Lys Leu Arg Lys Lys Ile Ser Asn Arg Phe Lys Lys Leu Arg Lys Arg Leu Lys Lys Gly Phe Gly Arg D-Lys ([dP]LPIPIVVNFNKLRKKISNRFKKLRKRLKKGFGR[dK]) [SEQ ID NO: 17]
antimicrobial activity, cleared area in radial diffusion assay (FIG. 4) ([1]; E. coli): exhibits antimicrobial activity
